Reference: PMC10096175, “An In Vitro Antimicrobial, Anticancer and Antioxidant Activity of N–[(2–Arylmethylthio)phenylsulfonyl]cinnamamide Derivatives” (Molecules, 2023)
In brackets after ≈: the same amount, converted by molar mass. Read-outs that look alike come from different tables or passages of the source.

How the values were obtained:
C. diphtheriae = experiment: MIC determination, reference strain (microdilution); assay type: cell-based; conditions: Corynebacterium diphtheriae; C. diphtheriae; Co-trimoxazole as sulfamethoxazole/trimethoprim; read-out: MIC
E. faecalis ATCC 51299 = experiment: as above; assay type: cell-based; conditions: Enterococcus faecalis, ATCC51299; E. faecalis ATCC 51299; Co-trimoxazole as sulfamethoxazole/trimethoprim; read-out: MIC
MCF-7 cells = experiment: MTT assay; assay type: cell-based, human; conditions: for IC50: Homo sapiens, MCF7, MCF-7, MTT, 24 h treatment, read-out: IC50; for Selectivity index (SI): IC50 HEK-293 / IC50 MCF-7
C. albicans ATCC 10231 = experiment: MIC determination, reference fungal strain (microdilution); assay type: cell-based; conditions: Candida albicans, ATCC10231; C. albicans ATCC 10231; read-out: MIC
SKOV-3 cells = experiment: MTT assay; assay type: cell-based, human; conditions: for IC50: Homo sapiens, SK-OV-3, SKOV-3, MTT, 24 h treatment, read-out: IC50; for Selectivity index (SI): IC50 HEK-293 / IC50 SKOV-3
[1] = tested on: Staphylococcus sp. and Enterococcus sp.; experiment: MIC, summary statements on reference Gram-positive cocci; assay type: cell-based; conditions: Staphylococcus and Enterococcus species, reference Gram-positive cocci (range over strains)
Protocol: Sterile sheep blood defibrinated (GrasoBiotech). Co-trimoxazole (composition sulfamethoxazole 400 mg/trimethoprim 80 mg; WZF Polfa Poland). Ketoconazole (WZF Polfa Poland). Bacteria: Enterococcus hirae ATCC 10541 and Enterococcus faecalis ATCC 51299, Staphylococcus epidermidis ATCC 14990, Staphylococcus aureus ATCC 6538, clinical strains Staphylococcus aureus MRSA, clinical strains Staphylococcus sp. (MRCNS), clinical strain Staphylococcus epidermidis MRSE, clinical strain Enterococcus sp., Corynebacterium diphtheriae ZMF, Bacillus subtilis ATCC 6633, Escherichia coli ATCC 8739, Candida albicans ATCC 10231. Brain-heart infusion broth (BHI, Becton Dickinson) for Enterococcus hirae ATCC 10541 and Enterococcus faecalis ATCC 51299, BHI supplement with 10% bovine serum for Bacillus subtilis, Corynebacterium diphtheriae ZMF, Staphylococcus epidermidis ATCC 14990, Staphylococcus aureus ATCC 6538, clinical strains Staphylococcus aureus MRSA, clinical strains Staphylococcus sp. (CNS), clinical strain Staphylococcus epidermidis MRSE grew in Mueller-Hinton broth (MH cation-adjusted, Becton Dickinson) in an aerobic atmosphere at 37 °C for 48 h, in an aerobic atmosphere at 37 °C for 72 h. Candida albicans grew in Sabourauda broth (Sb, Becton Dickinson), in an aerobic atmosphere at 37 °C for 72 h. After determination of the bacterial viability, BHI blood agar plates, MH agar plates, and Sb agar plates were used.
The MIC determination for the reference and clinical strains was performed based on the methodology described by Kula et al.. The dry test samples were dissolved in dimethyl sulfoxide (DMSO) and diluted in water, resulting in a finale concentration of about 500 µg/mL. These solutions were diluted and added to the first well of each microtiter line. Dilution in geometric progression was done by transferring the mixture/dilution (100 μL) from the first to the twelfth well. An aliquot (100 μL) was discarded from the twelfth well. The final concentration of the samples used in the antimicrobial activity assay ranged from 125 to 0.006 µg/mL. Co-trimoxazole (for bacteria), with the composition sulfamethoxazole 400 mg/trimethoprim 80 mg was used as a reference compound in the concentration range of 20 000/4000 to 1/0.2 µg/mL. Ketoconazole (for fungi) was used as a reference compound in the concentration range of 125 to 0.006 µg/mL. Tests were incubated in adequate conditions described by Kula et al.. Diluent concentration had no effect on the activity of the tested compounds. All experiments were carried out three times.

HEK-293 cells = experiment: MTT assay, noncancerous cells; assay type: cell-based; conditions: Homo sapiens, HEK293; HEK-293; MTT, 24 h treatment; read-out: IC50
S. aureus ATCC 6538 = experiment: MIC determination, reference strain (microdilution); assay type: cell-based; conditions: Staphylococcus aureus, ATCC6538; S. aureus ATCC 6538; ± SD; Co-trimoxazole as sulfamethoxazole/trimethoprim; read-out: MIC
B. subtilis ATCC 6633 = experiment: as above; assay type: cell-based; conditions: Bacillus subtilis, ATCC6633; B. subtilis ATCC 6633; Co-trimoxazole as sulfamethoxazole/trimethoprim; read-out: MIC
E. hirae ATCC 10541 = experiment: as above; assay type: cell-based; conditions: Enterococcus hirae, ATCC10541; E. hirae ATCC 10541; Co-trimoxazole as sulfamethoxazole/trimethoprim; read-out: MIC
DPPH assay = conditions: DPPH radical scavenging; 40 min, room temperature
Protocol: The DPPH assay was performed spectrophotometrically. The amount of 30 µL of different concentrations of samples, dissolved in methanol/DMSO (9/1 v/v), was mixed with 170 µL of 0.06 mM DPPH methanolic solution and completed with methanol to a final volume of 300 µL. DPPH methanolic solution with methanol/DMSO (9/1 v/v) was used as a control. After 40 min of incubation at room temperature in the dark, the absorbance was analyzed at λ = 510 nm by a 96-well microplate reader (Epoch, BioTek System, Santa Clara, CA, USA). Ascorbic acid was used as a standard.
DPPH inhibition was calculated by the following equation:DPPH Inhibition (%) = [Acontrol − Asample)/Acontrol] × 100%
(§1) IC50 values of the samples were calculated using program GraFit v. 7.0 (Erithacus Software). The analysis was performed three times, with tree replications in each (n = 9). Statistical analysis was performed with one-way ANOVA with Tuckey’s post-hoc test.

ABTS assay = conditions: ABTS radical scavenging; 10 min, 30 °C
Protocol: The ABTS assay was performed spectrophotometrically. […] ABTS solution with methanol/DMSO (9/1 v/v) was used as a control. After 10 min of incubation at 30 °C in the dark, the absorbance was analyzed at λ = 750 nm by a 96-well microplate reader (Epoch, BioTek System, Santa Clara, CA, USA). Ascorbic acid was used as a standard.
ABTS inhibition was calculated by the following equation:ABTS Inhibition (%) = [Acontrol − Asample)/Acontrol] × 100%
as §1

[2] = tested on: clinical methicillin-resistant S. aureus (MRSA) strains; experiment: MIC on clinical MRSA strains; assay type: cell-based; conditions: Staphylococcus aureus, MRSA / VISA; strains MRSA12673, MRSA21804, MRSA18532, MRSA12647 and MRSAN315 VISA
From the text: In the next step, we evaluated the compounds on clinical methicillin-resistant S. aureus (MRSA) strains (Figure 2) and methicillin-resistant coagulase-negative Staphylococcus (MRCNS) (Figure 3). The group of CNS includes nonpathogenic or opportunistic pathogens, while coagulase-positive staphylococci are represented by S. aureus. About 30% of the human population carries S. aureus in the upper respiratory tract. Infections caused by S. aureus include all purulent skin conditions (boils, abscesses, folliculitis) and nosocomial infections. The strains isolated from hospitals are usually antibiotic-resistant, where MRSA strains are the majority. Staphylococcus epidermidis (like other coagulase-negative Staphylococcus) is included in the microflora of human skin and can easily cause surface contamination after surgical procedures.
Sterile sheep blood defibrinated (GrasoBiotech). Co-trimoxazole (composition sulfamethoxazole 400 mg/trimethoprim 80 mg; WZF Polfa Poland). Ketoconazole (WZF Polfa Poland). Bacteria: Enterococcus hirae ATCC 10541 and Enterococcus faecalis ATCC 51299, Staphylococcus epidermidis ATCC 14990, Staphylococcus aureus ATCC 6538, clinical strains Staphylococcus aureus MRSA, clinical strains Staphylococcus sp. […]

[3] = tested on: cancer cells (HeLa, SKOV-3, MCF-7); experiment: MTT assay, summary statements on the cancer cells; assay type: cell-based; conditions: Homo sapiens, cell line not specified
[4] = tested on: S. epidermidis ATCC 14990; experiment: MIC determination, reference strain (microdilution); assay type: cell-based; conditions: Staphylococcus epidermidis, ATCC14990; S. epidermidis ATCC 14990; Co-trimoxazole as sulfamethoxazole/trimethoprim; read-out: MIC
HeLa cells = experiment: MTT assay; assay type: cell-based, human; conditions: for IC50: HeLa, MTT, 24 h treatment; for Selectivity index (SI): IC50 HEK-293 / IC50 HeLa
E. coli ATCC 8739 = experiment: MIC determination, reference strain (microdilution); assay type: cell-based; conditions: Escherichia coli, ATCC8739; E. coli ATCC 8739; Co-trimoxazole as sulfamethoxazole/trimethoprim; read-out: MIC
[5] = tested on: clinical strains of Enterococcus sp.; experiment: MIC on clinical Enterococcus strains; assay type: cell-based
in vitro = conditions: sheep, defibrinated sheep blood diluted 1:9 v/v with PBS, pH 7
[6] = Homo sapiens, 24 h, read-out: IC50
[7] = Enterococcus sp. 3937152, read-out: MIC

| Structure (SMILES) | MIC (C. diphtheriae) | MIC (E. faecalis ATCC 51299) | IC50 (MCF-7 cells) | Selectivity index (SI) (MCF-7 cells) | MIC (C. albicans ATCC 10231) | IC50 (SKOV-3 cells) | Selectivity index (SI) (SKOV-3 cells) | IC50 (HEK-293 cells) | MIC (S. aureus ATCC 6538) | MIC (B. subtilis ATCC 6633) | MIC (E. hirae ATCC 10541) | IC50 DPPH (DPPH assay) | IC50 ABTS (ABTS assay) | MIC [2] | IC50 ([3]; MTT) | IC50 ([3]; µg/mL bound converted) | MIC [4] | IC50 (HeLa cells; [6]) | Selectivity index (SI) (HeLa cells) | MIC (E. coli ATCC 8739) | also measured |
| --- | --- | --- | --- | --- | --- | --- | --- | --- | --- | --- | --- | --- | --- | --- | --- | --- | --- | --- | --- | --- | --- |
| Cc1cc(S(=O)(=O)NC(=O)/C=C/c2ccc(Br)cc2)c(SCc2cc3c(cc2Cl)OCO3)cc1Cl [Compound 17a, (E)-3-(4-Bromophenyl)-N-{4-chloro-2-[(6-chlorobenzo[d][1,3]dioxol-5-yl)methylthio]-5-methylphenylsulfonyl}acrylamide] | > 125 µg/mL | 2 ± 0.58 µg/mL (≈ 3.25 µM) | 13 ± 0.66 µg/mL (≈ 21.1 µM) | 0.5 | > 125 µg/mL | 13.15 ± 0.05 µg/mL (≈ 21.4 µM) | 0.5 | 6.49 ± 0.46 µg/mL (≈ 10.5 µM) | 1 ± 0.29 µg/mL (≈ 1.63 µM) | 62.5 ± 0.29 µg/mL (≈ 102 µM) | 2 ± 0.58 µg/mL (≈ 3.25 µM) | 790.52 ± 1.44 µg/mL (≈ 1280 µM) | 569.99 ± 7.9 µg/mL (≈ 926 µM) | 8 to 16 µg/mL (≈ 13 to 26 µM) | < 10 µg/mL | ≤ 20 µM | 1 ± 0.58 µg/mL (≈ 1.63 µM) | < 10 µg/mL | 0.8 | > 125 µg/mL | MIC [1]: 1 to 2 µg/mL (≈ 1.63 to 3.25 µM); IC50 (HeLa cells): 8.49 ± 0.49 µg/mL (≈ 13.8 µM) |
| Cc1cc(S(=O)(=O)NC(=O)/C=C/c2ccc(F)cc2)c(SCc2cc3c(cc2Cl)OCO3)cc1Cl [Compound 17b, (E)–N–{4–Chloro–2–[(6–chlorobenzo[d][1,3]dioxol–5–yl)methylthio]–5–methylphenylsulfonyl}–3–(4–fluorophenyl)acrylamide] | > 125 µg/mL | 4 ± 0.15 µg/mL (≈ 7.21 µM) | 14.8 ± 0.66 µg/mL (≈ 26.7 µM) | 0.5 | > 125 µg/mL | 11 ± 0.5 µg/mL (≈ 19.8 µM) | 0.6 | 7.17 ± 0.44 µg/mL (≈ 12.9 µM) | 2 ± 0.29 µg/mL (≈ 3.61 µM) | 62.5 ± 0.29 µg/mL (≈ 113 µM) | 4 ± 0.15 µg/mL (≈ 7.21 µM) | 652.93 ± 2.39 µg/mL (≈ 1180 µM) | 620.39 ± 1.29 µg/mL (≈ 1120 µM) | > 125 µg/mL |  |  | 2 ± 0.58 µg/mL (≈ 3.61 µM) | 12 ± 0.44 µg/mL (≈ 21.6 µM) | 0.6 | > 125 µg/mL | MIC ([5]; Enteroccoccus sp. 3934825): > 125 µg/mL; MIC ([5]; Enterococcus sp. 12848): > 125 µg/mL; MIC [5, 7]: > 125 µg/mL; hemolysis at 24 h, 62.5 µg/mL (in vitro): 9% |
| Cc1cc(S(=O)(=O)NC(=O)/C=C/c2ccc([N+](=O)[O-])cc2)c(SCc2cc3c(cc2Cl)OCO3)cc1Cl [Compound 17d, (E)–N–{4–Chloro–2–[(6–chlorobenzo[d][1,3]dioxol–5–yl)methylthio]–5–methylphenylsulfonyl}–3–(4–nitrophenyl)acrylamide] | 62.5 ± 0.29 µg/mL (≈ 107 µM) | 8 ± 0.15 µg/mL (≈ 13.8 µM) | 16.3 ± 0.27 µg/mL (≈ 28.1 µM) | 0.9 | > 125 µg/mL | 15.3 ± 0.16 µg/mL (≈ 26.4 µM) | 1.0 | 15.4 ± 0.69 µg/mL (≈ 26.4 µM) | 4 ± 0.16 µg/mL (≈ 6.88 µM) | 125 ± 0.29 µg/mL (≈ 215 µM) | 8 ± 0.15 µg/mL (≈ 13.8 µM) | 574.41 ± 1.34 µg/mL (≈ 988 µM) | 419.18 ± 2.72 µg/mL (≈ 721 µM) |  | < 10 µg/mL | ≤ 20 µM | 2 ± 0.76 µg/mL (≈ 3.44 µM) | < 10 µg/mL | 1.5 | > 125 µg/mL | MIC [5, 7]: > 125 µg/mL; hemolysis at 24 h, 31.25 µg/mL (in vitro): 12 to 20%; IC50 (HeLa cells): 9.99 ± 0.08 µg/mL (≈ 17.2 µM) |
